The values below come from publication PMC6400584, “Activation mechanism of ATP-sensitive K^+ channels explored with real-time nucleotide binding” (eLife, 2019).

The target of assay [1] is SUR1-Y1353*/Kir6.2 (NBS2 of SUR1) (Homo sapiens, UniProt Q09428, Y1353X). Nature of the assay: FRET binding of TNP-nucleotides to ANAP-labeled KATP in unroofed membrane fragments. The note with it: 10 mM unlabeled nucleotide. The protocol: Unroofed membranes were prepared using a modification of a protocol from the Heuser laboratory ([Heuser, 2000]; [Usukura et al., 2012]; [Zagotta et al., 2016]). Briefly, a coverslip containing adherent cells was removed from the cell culture medium and a small piece (0.5–1 cm) was broken off using jewelers forceps (#5) and washed in phosphate buffered saline (PBS, Thermo Fisher Scientific) diluted 1:3 in deionized water. Cells were exposed 3 × 10 s to a solution of 0.01% poly-L-lysine (Sigma) with intervening washes in diluted PBS to adhere them more firmly to the coverslips. The coverslip fragment was then placed in a 30 mm culture dish filled with 2–3 mL of 1/3X PBS and sonicated very briefly (~100 ms) using a probe sonicator (Vibra-cell; Newtown, CT), leaving behind adherent plasma membrane and sometimes additional cellular material. The unroofed fragments in our experiments were sometimes visible under bright-field illumination, a potential result of our modified ‘unroofing’ procedure. Morphologically, such cell fragments resemble the ‘partially unroofed’ cells identified by Usukura et al. ([Usukura et al., 2012]) Cells cultured on poly-D-lysine coated FluoroDishes were unroofed in diluted PBS with no additional poly-L-lysine treatment. This procedure yielded a higher percentage of completely unroofed plasma membranes (i.e. nearly invisible with brightfield illumination).
Unroofed membrane fragments were imaged directly on FluoroDishes (FD35-PDL-100, World Precision Instruments) or on broken coverslips placed in a FluoroDish (FD3510, World Precision instruments) using a Nikon TE2000-U microscope equipped with a 40x (S Fluor, 1.3 NA; Nikon, Kingston Upon Thames, UK) or 100x (Apo TIRF, 1.49 NA, Nikon) oil-immersion objective and low-fluorescence immersion oil (MOIL-30, Olympus; Southend-on-Sea, UK) or a 60x water immersion objective (Plan Apo VC, 1.20 NA, Nikon). ANAP was excited using a ThorLabs LED source (LED4D067) at 385 nm connected to the microscope using a liquid light guide in series with a 390/18 nm band-pass filter (MF390-18, ThorLabs; Newton, NJ) and MD416 dichroic (ThorLabs). For imaging, emitted light was filtered through a 479/40 nm band-pass filter (MF479-40, ThorLabs). GFP-tagged constructs were imaged using a similar setup with excitation at 490 nm, a 480/40 band-pass excitation filter (Chroma; Bellows Falls, VT), a DM505 dichroic mirror (Chroma), and 510 nm long-pass emission filter (Chroma). All images were acquired using a PIXIS 400B CCD camera (Princeton Instruments; Trenton, NJ). For spectroscopy, ANAP was excited as above, but emitted light was passed through a 400 nm long-pass filter (FEL0400, ThorLabs) and directed through the slit of an Isoplane 160 spectrometer (300 g/mm grating; Princeton Instruments) in series with the camera. The acquired images retained spatial information in the y-dimension, with the x-dimension replaced by wavelength (Figure 1—figure supplement 1a). Exposure times were typically 100 ms for brightfield images, 1–10 s for steady-state spectra and 1–5 s for time-course experiments.
To prevent accumulation of fluorescent nucleotides in the bath, FluoroDishes were perfused with either (in mM) 140 KCl, 20 NaCl, 10 MgCl2, 10 HEPES pH 7.2 with NaOH or 140 KCl, 20 NaCl, 1 EDTA, 10 HEPES pH 7.2 with NaOH using a peristaltic pump (Ismatec; Wertheim, Germany). Unroofed membranes were directly perfused with nucleotides using an 8-channel µFlow perfusion system (ALA Scientific Instruments; Farmingdale, NY). Solution change with the µFlow was rapid (τ = 0.73 s±0.02 s, n=5) as measured from single exponential fits to wash-out of 50 µM tetramethylrhodamine-5-maleimide (TMRM) after switching to a solution with no TMRM. TMRM was excited with a 565 nm LED with a D540/25X band-pass filter (Chroma) and DM565 dichroic mirror (Chroma). Emitted light was collected through a D605/55M band-pass filter (Chroma). […]

The target in another assay is T1, SUR1/Kir6.2-G334D (Homo sapiens, UniProt Q09428).
T1 construct: expressed in transfected cells; host or cells: HEK-293T
Nature of the assay: Current activation in inside-out patches. It is filed as biochemical. The protocol:
(§1) Currents were recorded from inside-out membrane patches excised from transfected HEK-293T cells. Pipettes were pulled to a resistance of 1–5 MΩ and filled with an extracellular solution containing (in mM) 140 KCl, 1.2 MgCl2, 2.6 CaCl2, and 10 HEPES, pH 7.4 or 140 KCl, 1 EGTA, 10 HEPES, pH 7.3. The intracellular (bath) solutions contained either (in mM) 107 KCl, 2 MgCl2, 1 CaCl2, 10 EGTA, and 10 HEPES, pH 7.2 for experiments showing nucleotide-dependent activation or 140 KCl, 1 EDTA, 1 EGTA, 10 HEPES pH 7.3 for experiments showing nucleotide-dependent inhibition. Nucleotides were added as indicated. Patches were perfused with an 8-channel µFlow perfusion system. Data were acquired at a holding potential of −60 mV using an Axopatch 200B amplifier and Digidata 1322A digitizer with pClamp 9.0 software (Molecular Devices). Currents were digitized at 10 kHz and low-pass filtered at 1 kHz. KATP channels run down in excised patches (reviewed by Proks et al.) ([Proks et al., 2016]). For inhibitory concentration-response relationships, rundown was corrected by alternating test nucleotide solutions with nucleotide-free (control) solutions and expressing the test currents as a fraction of the average of the control currents before and after the test solution. […]

The next assay relates to T2, SUR1-T1397*/Kir6.2-G334D.
T2 construct: confirmed that >95% of SUR1-T1397* was full length; expressed in transfected cells; host or cells: HEK-293T
Nature of the assay: Current activation in inside-out patches. The assay is classed as biochemical, Homo sapiens. The protocol: as §1

The test system of assay [2] is SUR1/Kir6.2-G334D with K1384A (K2A) in NBS2. Set-up: method as in Proks et al., 2014. To be noted: ref Proks et al., 2014; cited from earlier work.

One may read the EC50 as the midpoint of the concentration-response curve.

SMILES strings stand for the structures.

T1 sequence (Q09428 whole entry, stated change not applied): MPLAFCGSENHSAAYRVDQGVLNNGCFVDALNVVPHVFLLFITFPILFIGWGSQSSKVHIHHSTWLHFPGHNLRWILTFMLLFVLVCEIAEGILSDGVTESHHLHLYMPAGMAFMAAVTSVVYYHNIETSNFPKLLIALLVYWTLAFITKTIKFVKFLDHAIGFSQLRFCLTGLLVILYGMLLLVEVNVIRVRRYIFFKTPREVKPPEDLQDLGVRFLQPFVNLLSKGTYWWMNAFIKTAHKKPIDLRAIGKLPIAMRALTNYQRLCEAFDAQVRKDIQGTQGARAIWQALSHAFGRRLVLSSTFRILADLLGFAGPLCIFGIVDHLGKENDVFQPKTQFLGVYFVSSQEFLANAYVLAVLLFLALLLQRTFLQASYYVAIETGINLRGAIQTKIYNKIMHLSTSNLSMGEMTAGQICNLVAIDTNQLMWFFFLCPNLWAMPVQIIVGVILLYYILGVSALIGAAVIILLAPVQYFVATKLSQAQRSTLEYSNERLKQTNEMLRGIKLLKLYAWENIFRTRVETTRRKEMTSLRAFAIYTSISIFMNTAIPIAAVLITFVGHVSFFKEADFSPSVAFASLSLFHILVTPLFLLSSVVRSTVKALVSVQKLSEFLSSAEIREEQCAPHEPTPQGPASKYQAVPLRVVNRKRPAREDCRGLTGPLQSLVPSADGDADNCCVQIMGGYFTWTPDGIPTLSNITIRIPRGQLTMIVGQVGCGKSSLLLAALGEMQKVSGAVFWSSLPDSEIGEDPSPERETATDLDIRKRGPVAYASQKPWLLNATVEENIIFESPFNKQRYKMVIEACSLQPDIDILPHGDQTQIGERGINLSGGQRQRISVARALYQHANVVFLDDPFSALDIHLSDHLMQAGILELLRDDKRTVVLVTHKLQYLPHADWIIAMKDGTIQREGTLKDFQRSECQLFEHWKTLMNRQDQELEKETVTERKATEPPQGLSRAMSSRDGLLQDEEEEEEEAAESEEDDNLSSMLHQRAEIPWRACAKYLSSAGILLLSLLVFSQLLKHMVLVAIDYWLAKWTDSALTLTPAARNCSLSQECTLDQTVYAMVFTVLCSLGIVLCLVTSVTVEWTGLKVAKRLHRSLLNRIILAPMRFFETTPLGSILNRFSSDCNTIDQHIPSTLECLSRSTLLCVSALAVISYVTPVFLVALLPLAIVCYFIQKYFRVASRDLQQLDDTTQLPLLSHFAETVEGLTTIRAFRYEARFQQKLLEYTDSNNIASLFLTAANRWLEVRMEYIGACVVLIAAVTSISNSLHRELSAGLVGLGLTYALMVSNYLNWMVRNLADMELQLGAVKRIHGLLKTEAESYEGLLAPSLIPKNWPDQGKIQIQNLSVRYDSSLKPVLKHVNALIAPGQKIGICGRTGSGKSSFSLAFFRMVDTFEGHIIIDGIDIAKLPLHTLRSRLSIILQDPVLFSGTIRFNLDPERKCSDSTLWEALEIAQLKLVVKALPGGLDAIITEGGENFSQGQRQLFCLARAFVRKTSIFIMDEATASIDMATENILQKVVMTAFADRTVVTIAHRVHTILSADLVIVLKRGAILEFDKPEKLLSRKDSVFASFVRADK
T1 sequence (Q14654 whole entry G334D partner): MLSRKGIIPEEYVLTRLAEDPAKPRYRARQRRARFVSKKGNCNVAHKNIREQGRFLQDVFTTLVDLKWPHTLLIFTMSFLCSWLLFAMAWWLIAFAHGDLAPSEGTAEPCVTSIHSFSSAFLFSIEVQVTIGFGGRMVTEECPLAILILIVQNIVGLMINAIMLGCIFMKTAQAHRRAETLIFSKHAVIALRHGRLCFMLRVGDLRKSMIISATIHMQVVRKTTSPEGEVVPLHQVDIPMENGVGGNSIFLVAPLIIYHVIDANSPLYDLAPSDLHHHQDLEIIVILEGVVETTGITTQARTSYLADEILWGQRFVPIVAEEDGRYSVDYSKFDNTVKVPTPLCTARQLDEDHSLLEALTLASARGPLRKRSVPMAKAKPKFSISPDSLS

Regarding `Nc1ncnc2c1ncn2[C@@H]1O[C@H](COP(=O)([O-])OP(=O)([O-])O)[C@@H](O)[C@H]1O.[Mg+2]` [MgADP], the “ANAP fluorescence intensity relative to the original peak” value in assay [1] is on record as 101 ± 2%. For the same molecule, the effect on currents result on SUR1/Kir6.2-G334D was “activated”. Also, the results for the EC50 with SUR1-T1397*/Kir6.2-G334D (Equation 5 fit to combined data) and in the assay with SUR1-T1397*/Kir6.2-G334D (mean ± SEM of fits of equation 5 to individual experiments) were 38.6 µM and 44.4 ± 14.5 µM, respectively. In assay [2], the “shift of concentration dependence of activation to higher concentrations by K2A mutation” value is over 20 fold.
